# Results as given in patent US9073940B2, “Tricyclic pyrazol amine derivatives” (MERCK SERONO SA, priority 2009, dated 2015).
# System: 4 PI3K isoforms (Human recombinant GST-PI3K)
# Assay: PI3K scintillation proximity assay, best IC50 obtained with the four isoforms (alpha, beta, delta, gamma)
# Assay type: biochemical
# Settings: best IC50 obtained with the four isoforms of PI3K; read-out: Best potency measured on the 4 PI3K isoforms
row,IC50,SMILES
1,614 nM,"O=C(c1nn(-c2ccc(CN3CCOCC3)nc2)c2c1CS(=O)(=O)c1ccccc1-2)N1CCOCC1 [Example 216, 3-(Morpholin-4-ylcarbonyl)-1-[6-(morpholin-4-ylmethyl)pyridin-3-yl]-1,4-dihydrothiochromeno[4,3-c]pyrazole 5,5-dioxide]"
2,1200 nM,"O=C(c1nn(-c2ccc(CN3CCC(F)CC3)nc2)c2c1CS(=O)(=O)c1ccccc1-2)N1CCOCC1 [Example 217, 1-{6-[(4-Fluoropiperidin-1-yl)methyl]pyridin-3-yl}-3-(morpholin-4-ylcarbonyl)-1,4-dihydrothiochromeno[4,3-c]pyrazole 5,5-dioxide]"
3,468 nM,"O=C(c1nn(C2CCCN(c3ccccc3)C2)c2c1CS(=O)(=O)c1ccccc1-2)N1CCOCC1 (centres unmarked) [Example 218, 3-(Morpholin-4-ylcarbonyl)-1-(1-phenylpiperidin-3-yl)-1,4-dihydrothiochromeno[4,3-c]pyrazole 5,5-dioxide]"
4,711 nM,"O=C(c1nn(C2CCCN(CCc3ccccc3)C2)c2c1CS(=O)(=O)c1ccccc1-2)N1CCOCC1 (centres unmarked) [Example 219, 3-(Morpholin-4-ylcarbonyl)-1-[1-(2-phenylethyl)piperidin-3-yl]-1,4-dihydrothiochromeno[4,3-c]pyrazole 5,5-dioxide]"
5,587 nM,"CC(C)(C)CCN1CCCC(n2nc(C(=O)N3CCOCC3)c3c2-c2ccccc2S(=O)(=O)C3)C1 (centres unmarked) [Example 220, 1-[1-(3,3-Dimethylbutyl)piperidin-3-yl]-3-(morpholin-4-ylcarbonyl)-1,4-dihydrothiochromeno[4,3-c]pyrazole 5,5-dioxide]"
6,149 nM,"O=C(c1nn(C2CCCN(CCC(F)(F)F)C2)c2c1CS(=O)(=O)c1ccccc1-2)N1CCOCC1 (centres unmarked) [Example 222, 3-(Morpholin-4-ylcarbonyl)-1-[1-(3,3,3-trifluoropropyl)piperidin-3-yl]-1,4-dihydrothiochromeno[4,3-c]pyrazole 5,5-dioxide]"
7,54 nM,"O=C(c1nn(C2CCCN(CCC3CCOCC3)C2)c2c1CS(=O)(=O)c1ccccc1-2)N1CCOCC1 (centres unmarked) [Example 224, 3-(Morpholin-4-ylcarbonyl)-1-{1-[2-(tetrahydro-2H-pyran-4-yl)ethyl]piperidin-3-yl)-1,4-dihydrothiochromeno[4,3-c]pyrazole 5,5-dioxide]"
8,635 nM,"COCCOCCN1CCCC(n2nc(C(=O)N3CCOCC3)c3c2-c2ccccc2S(=O)(=O)C3)C1 (centres unmarked) [Example 225, 1-{1-[2-(2-Methoxyethoxy)ethyl]piperidin-3-yl}-3-(morpholin-4-ylcarbonyl)-1,4-dihydrothiochromeno[4,3-c]pyrazole 5,5-dioxide]"
9,285 nM,"O=C(c1nn(-c2ccc(CN3CCCC3)cc2)c2c1CS(=O)(=O)c1ccccc1-2)N1CCOCC1 [Example 228, 3-(Morpholin-4-ylcarbonyl)-1-[4-(pyrrolidin-1-ylmethyl)phenyl]-1,4-dihydrothiochromeno[4,3-c]pyrazole 5,5-dioxide]"
10,920 nM,"CS(=O)(=O)C1CCN(Cc2ccc(-n3nc(C(=O)N4CCOCC4)c4c3-c3ccccc3S(=O)(=O)C4)cc2)C1 (centres unmarked) [Example 229, 1-(4-{[3-(Methylsulfonyl)pyrrolidin-1-yl]methyl}phenyl)-3-(morpholin-4-ylcarbonyl)-1,4-dihydrothiochromeno[4,3-c]pyrazole 5,5-dioxide]"
11,1920 nM,"CCc1noc(Cn2nc(C(=O)N3CCOCC3)c3c2-c2ccccc2S(=O)(=O)C3)n1 [Example 230, 1-[(3-Ethyl-1,2,4-oxadiazol-5-yl)methyl]-3-(morpholin-4-ylcarbonyl)-1,4-dihydrothiochromeno[4,3-c]pyrazole 5,5-dioxide]"
12,431 nM,"COC(=O)c1ccc(Cn2nc(C(=O)N3CCOCC3)c3c2-c2ccccc2S(=O)(=O)C3)o1 [Example 231, Methyl 5-{[3-(morpholin-4-ylcarbonyl)-5,5-dioxidothiochromeno[4,3-c]pyrazol-1(4H)-yl]methyl}-2-furoate]"
13,1170 nM,"COc1cccc(Cn2nc(C(=O)N3CCOCC3)c3c2-c2ccccc2S(=O)(=O)C3)c1 [Example 232, 1-(3-Methoxybenzyl)-3-(morpholin-4-ylcarbonyl)-1,4-dihydrothiochromeno[4,3-c]pyrazole 5,5-dioxide]"
14,240 nM,"COC1CCN(Cc2cccc(-n3nc(C(=O)N4CCOCC4)c4c3-c3ccccc3S(=O)(=O)C4)c2)CC1 [Example 234, 1-{3-[(4-Methoxypiperidin-1-yl)methyl]phenyl}-3-(morpholin-4-ylcarbonyl)-1,4-dihydrothiochromeno[4,3-c]pyrazole 5,5-dioxide]"
15,232 nM,"O=C(c1nn(-c2cccc(CN3CCSCC3)c2)c2c1CS(=O)(=O)c1ccccc1-2)N1CCOCC1 [Example 236, 3-(Morpholin-4-ylcarbonyl)-1-[3-(thiomorpholin-4-ylmethyl)phenyl]-1,4-dihydrothiochromeno[4,3-c]pyrazole 5,5-dioxide]"
16,573 nM,"O=C(c1nn(-c2cccc(CN3CCC(O)CC3)c2)c2c1CS(=O)(=O)c1ccccc1-2)N1CCOCC1 [Example 237, 1-{3-[3-(Morpholin-4-ylcarbonyl)-5,5-dioxidothiochromeno[4,3-c]pyrazol-1 (4H)-yl]benzyl}piperidin-4-ol]"
17,4040 nM,"O=C(O)c1nn(-c2ccc(CN3CCOCC3)cc2)c2c1CS(=O)(=O)c1ccccc1-2 [Example 238, 1-[4-(Morpholin-4-ylmethyl)phenyl]-1,4-dihydrothiochromeno[4,3-c]pyrazole-3-carboxylic acid 5,5-dioxide]"
18,1490 nM,"O=C(c1nn(Cc2nc3ccccc3s2)c2c1CS(=O)(=O)c1ccccc1-2)N1CCOCC1 [Example 239, 1-(1,3-Benzothiazol-2-ylmethyl)-3-(morpholin-4-ylcarbonyl)-1,4-dihydrothiochromeno[4,3-c]pyrazole 5,5-dioxide]"
19,624 nM,"O=C(c1nn(Cc2cc(Cl)cs2)c2c1CS(=O)(=O)c1ccccc1-2)N1CCOCC1 [Example 240, 1-[(4-Chloro-2-thienyl)methyl]-3-(morpholin-4-ylcarbonyl)-1,4-dihydrothiochromeno[4,3-c]pyrazole 5,5-dioxide]"
20,437 nM,"O=C(c1nn(-c2cccc(CN3CCC(F)CC3)c2)c2c1CS(=O)(=O)c1ccccc1-2)N1CCOCC1 [Example 242, 1-{3-[(4-Fluoropiperidin-1-yl)methyl]phenyl}-3-(morpholin-4-ylcarbonyl)-1,4-dihydrothiochromeno[4,3-c]pyrazole 5,5-dioxide]"
21,464 nM,"CS(=O)(=O)C1CCN(Cc2cccc(-n3nc(C(=O)N4CCOCC4)c4c3-c3ccccc3S(=O)(=O)C4)c2)C1 (centres unmarked) [Example 243, 1-(3-{[3-(Methylsulfonyl)pyrrolidin-1-yl]methyl}phenyl)-3-(morpholin-4-ylcarbonyl)-1,4-dihydrothiochromeno[4,3-c]pyrazole 5,5-dioxide]"
22,1540 nM,"O=C(c1nn(-c2cccc(CN3CCCC(F)(F)C3)c2)c2c1CS(=O)(=O)c1ccccc1-2)N1CCOCC1 [Example 244, 1-{3-[(3,3-Difluoropiperidin-1-yl)methyl]phenyl}-3-(morpholin-4-ylcarbonyl)-1,4-dihydrothiochromeno[4,3-c]pyrazole 5,5-dioxide]"
23,516 nM,"O=C(c1nn(-c2cccc(CN3CCCC3)c2)c2c1CS(=O)(=O)c1ccccc1-2)N1CCOCC1 [Example 245, 3-(Morpholin-4-ylcarbonyl)-1-[3-(pyrrolidin-1-ylmethyl)phenyl]-1,4-dihydrothiochromeno[4,3-c]pyrazole 5,5-dioxide]"
24,824 nM,"O=C(c1nn(C2CCOCC2)c2c1CS(=O)(=O)c1sccc1-2)N1CCOCC1 [Example 246, 3-(Morpholin-4-ylcarbonyl)-1-(tetrahydro-2H-pyran-4-yl)-1,4-dihydrothieno[3′,2′:5,6]thiopyrano[4,3-c]pyrazole 5,5-dioxide]"
25,639 nM,"O=C(c1nn(-c2cccc(CN3CCS(=O)(=O)CC3)c2)c2c1CS(=O)(=O)c1ccccc1-2)N1CCOCC1 [Example 247, 1-{3-[(1,1-Dioxidothiomorpholin-4-yl)methyl]phenyl}-3-(morpholin-4-ylcarbonyl)-1,4-dihydrothiochromeno[4,3-c]pyrazole 5,5-dioxide]"
26,997 nM,"COCc1cccc(-n2nc(C(=O)N3CCOCC3)c3c2-c2ccccc2S(=O)(=O)C3)c1 [Example 248, 1-[3-(Methoxylmethyl)phenyl]-3-(morpholin-4-ylcarbonyl)-1,4-dihydrothiochromeno[4,3-c]pyrazole 5,5-dioxide]"
27,1030 nM,"O=C(c1nn(C2CCOCC2)c2c1CS(=O)(=O)c1c(F)cccc1-2)N1CCOCC1 [Example 249, 6-Fluoro-3-(morpholin-4-ylcarbonyl)-1-(tetrahydro-2H-pyran-4-yl)-1,4-dihydrothiochromeno[4,3-c]pyrazole 5,5-dioxide]"
28,7900 nM,"NC(=O)c1cccc2c1S(=O)(=O)Cc1c(C(=O)N3CCOCC3)nn(-c3ccccc3)c1-2 [Example 250, 3-(Morpholin-4-ylcarbonyl)-1-phenyl-1,4-dihydrothiochromeno[4,3-c]pyrazole-6-carboxamide 5,5-dioxide]"
29,335 nM,"CN1CCN(Cc2ccc(-n3nc(C(=O)N4CCOCC4)c4c3-c3ccccc3S(=O)(=O)C4)cn2)CC1 [Example 252, 1-{6-[(4-Methylpiperazin-1-yl)methyl]pyridin-3-yl}-3-(morpholin-4-ylcarbonyl)-1,4-dihydrothiochromeno[4,3-c]pyrazole 5,5-dioxide]"
30,72 nM,"CN(C)CCN1CCCC(n2nc(C(=O)N3CCOCC3)c3c2-c2ccccc2S(=O)(=O)C3)C1 (centres unmarked) [Example 253, N,N-Dimethyl-2-{3-[3-(morpholin-4-ylcarbonyl)-5,5-dioxidothiochromeno[4,3-c]pyrazol-1 (4H)-yl]piperidin-1-yl}ethanamine]"

row,SMILES,IC50
1,"CC(C)CCOC1CCN(Cc2ccc(-n3nc(C(=O)N4CCOCC4)c4c3-c3ccccc3S(=O)(=O)C4)cc2)C1 (centres unmarked) [Example 233, 1-(4-{[3-(3-Methylbutoxy)pyrrolidin-1-yl]methyl}phenyl)-3-(morpholin-4-ylcarbonyl)-1,4-dihydrothiochromeno[4,3-c]pyrazole 5,5-dioxide]",167 nM
2,"CC(C)CCOC1CCN(Cc2cccc(-n3nc(C(=O)N4CCOCC4)c4c3-c3ccccc3S(=O)(=O)C4)c2)C1 (centres unmarked) [Example 235, 1-(3-{[3-(3-Methylbutoxy)pyrrolidin-1-yl]methyl}phenyl)-3-(morpholin-4-ylcarbonyl)-1,4-dihydrothiochromeno[4,3-c]pyrazole 5,5-dioxide]",389 nM
